Results reported in patent publication US7074801B1, “Nitrogen-containing condensed cyclic compound having a pyrazolyl group as a substituent group and pharmaceutical composition thereof” (Eisai Co., Ltd., priority 2001, dated 2006).
Counter-ions that a name gives are not always drawn.

test system: STAT6; assay: Inhibitory test on STAT6 activation: IL-4-induced alkali phosphatase STAT6 reporter in 293 cells stably expressing the STAT6 gene and STAT6 reporter gene; format: cell-based; details: HEK293; Table 1; 1 ng/ml human recombinant IL-4, 16 hours, 293 cells with STAT6 reporter; read-out: Inhibitory activity IC50 (concentration at which the alkali phosphatase activity induced by IL-4 was inhibited by 50%)
Experimental: The inhibitory action of the present compound on activation of STAT6 was evaluated according to the following experiments.
1) Construction of a STAT6 Reporter Gene
An oligonucleotide of SEQ ID NO:1 in which three STAT6-binding regions on a human immunoglobulin germline E gene promoter had been linked was mixed with its complementary chain, thermally denatured and annealed, and 5′- and 3′-ends thereof were cleaved with restriction enzymes Kpn I (Code No. 1068A, Takara Shuzo) and Xba I (Code No. 1093A, Takara Shuzo) respectively, and the resulting fragment was cloned into a Kpn I/Xba I site of pUG-BGH-PLAP vector (described in Molecular Pharmacology, 49:860–873, 1996). To induce a basic transcriptional factor, a TK promoter region of herpes virus was cloned into an Xba I/Hind III (Code No. 1060A, Takara Shuzo) site of the pUG-BGH-PLAP vector. To obtain a stably expressing cell strain, a neomycin resistance gene (PGK-neo expression cassette) was integrated with an Sal I (Code No. 1080A, Takara Shuzo) of this vector. Cloning of the TK promoter and PGK-neo expression cassette was carried out according to Molecular Pharmacology, 49:860–873, 1996.
The underlined sites are a Kpn I recognition site and Xba I recognition site respectively. 2) Construction of an STAT6 Expression Vector
An oligonucleotide of SEQ ID NO:2 containing an initiation codon of STAT6 gene and an oligonucleotide of SEQ ID NO:3 containing a stop codon were used, and total RNA was prepared from human peripheral blood cells by using RNeasy Mini kit (Code No. 74104, OIAGEN). Then, cDNA was prepared by reverse transcription reaction using Takara RNA LA PCR kit (Code No. RR012A, Takara Shuzo) and then subjected to PCR reaction with primers of SEQ ID NOS:2 and 3, to amplify the STAT6 gene. • (SEQ ID NO:2) 5′-[…]-3′ The underlined site is an EcoR I recognition site. • (SEQ ID NO:3) 5′-[…]-3′ The underlined site is an Xho I recognition site.
The PCR product was digested with EcoR I (Code No. 1040A, Takara Shuzo) and Xho I (1094A, Takara Shuzo), and the digested fragment was isolated on an agarose gel. The isolated fragment was integrated into a vector fragment obtained by digesting pcDNA3.1 (+) (Code No. U790-20, Invitrogen) vector with EcoRI/Xho I.
3) Introduction of the Gene and Preparation of a Stably Expressing Cell Strain
Human fetal kidney-derived 293 cells (American Type Culture Collection), 3.0×10^5 cells, were spread on a Falcon tissue culture 6-well plate (Code No. 35-3046, Becton Dickinson) and cultured overnight. 1.5 μg of the prepared STAT6 reporter gene, 1.5 μg of the STAT6 gene and 20 μl of lipofectamine (Code No. 18324-012, GIBCO BRL) were mixed in 0.3 ml OPTI-MEM medium (Code No. 31985-070) and left at room temperature for 20 minutes. Thereafter, 1.2 ml OPTI-MEM medium was further added to the cells washed with OPTI-MEM medium not containing fetal bovine serum, and the cells were cultured for 2 hours. 1.5 ml medium containing fetal bovine serum was added thereto, and the cells were cultured for additional 19 hours. The medium was exchanged with a fresh one, and Geneticin (Code No. G-5013, SIGMA) was added at a concentration of 1 mg/ml, and the cells were cultured, and chemical-resistant cells were selected. The resulting chemical-resistant cells were floated in a medium containing 1 mg/ml Geneticin, then spread at a density of 0.5 cell/well on a 96-well microplate (Code No. 35-3072, Becton Dickinson) and cloned to give a clone expressing alkali phosphatase in response to IL-4.
4) Inhibitory Test on STAT6 Activation
The cells stably expressing the STAT6 gene and STAT6 reporter gene and expressing alkali phosphatase in response to IL-4 were spread at a density of 5000 cells/180 μl/well on a 96-well microplate (Code No. 35-3072, Becton Dickinson) and cultured overnight. […]

Compound	IC50
Fc1ccc(-c2n[nH]cc2-c2ccc3ncc(-c4noc(C5CC5)n4)n3c2)c(F)c1 [Example 576, 3-(5-Cyclopropyl-[1,2,4]oxadiazol-3-yl)-6-[3-(2,4-difluorophenyl)-1H-4-pyrazolyl]-imidazo[1,2-a]pyridine trihydrochloride]	< 10 nM
O=C(N1CCCC1)N1CCN(c2ccnc3ccc(-c4c[nH]nc4C(F)(F)F)cc23)CC1 [Example 224, Tetrahydro-1H-1-pyrrolyl{4-[6-(3-trifluoromethyl-1H-pyrazolyl)-4-quinolyl]piperazin-1-yl}methanone]	< 10 nM
O=C(Nc1ccc(-c2cnc3ccc(-c4cn[nH]c4)cn23)cc1F)NC1CCCCC1 [Example 698, N-Cyclohexyl-N′-(2-fluoro-4-[6-(1H-4-pyrazolyl)imidazo[1,2-a]pyridin-3-yl]phenyl}urea hydrochloride]	10 to 100 nM
O=C(c1ccc(-c2n[nH]cc2-c2ccc3ncc(-c4ccccn4)n3c2)cc1)N1CCOCC1 [Example 115, Morpholino(4-{4-[3-(2-pyridyl)imidazo[1,2-a]pyridin-6-yl]-1H-3-pyrazolyl}phenyl)methanone]	< 10 nM
O=C(Nc1ccc(Cl)cn1)c1ccc(-c2cnc3ccc(-c4cn[nH]c4)cn23)cc1F [Example 680, N1-(5-Chloro-2-pyridyl)-2-fluoro-4-[6-(1H-4-pyrazolyl)-imidazo[1,2-a]pyridin-3-yl]benzamide dihydrochloride]	< 10 nM
Fc1ccc(-c2n[nH]cc2-c2ccc3ncc(-c4ccc(Cl)s4)n3c2)cc1 [Example 70, 3-(5-Chloro-2-thienyl)-6-[3-(4-fluorophenyl)-1H-4-pyrazolyl]imidazo[1,2-a]pyridine dihydrochloride]	10 to 100 nM
CNc1nnc(-c2cnc3ccc(-c4c[nH]nc4-c4ccc(F)cc4F)cn23)o1 [Example 561]	< 10 nM
N#Cc1ccc(-c2n[nH]cc2-c2ccc3ncc(-c4ccc(C(N)=O)cc4)n3c2)cc1 [Example 108, 4-{6-[3-(4-Cyanophenyl)-1H-4-pyrazolyl]imidazo[1,2-a]-pyridin-3-yl}benzamide dihydrochloride]	< 10 nM
CS(=O)(=O)c1ccc(-c2n[nH]cc2-c2ccc3ncc(-c4ccc(C#N)cc4)n3c2)cc1 [Example 102, 4–6-(3-[4-(Methylsulfonyl)phenyl]-1H-4-pyrazolyl}imidazo-[1,2-a]pyridin-3-yl)benzonitrile dihydrochloride]	10 to 100 nM
O=C(Nc1nc2ccc(F)cc2s1)c1ccc(-c2cnc3ccc(-c4cn[nH]c4)cn23)cc1F [Example 669, N1-(6-Fluoro-1,3-benzothiazol-2-yl)-2-fluoro-4-[6-(1H-4-pyrazolyl)imidazo[1,2-a]pyridin-3-yl]benzamide dihydrochloride]	< 10 nM
N#CCC[C@H](O)c1nc2ccc(-c3cnc4ccc(-c5c[nH]nc5-c5ccc(F)cc5)cn34)cc2s1 [Example 628, (4S)-4-(6-{6-[3-(4-Fluorophenyl)-1H-4-pyrazolyl]imidazo-[1,2-a]pyridin-3-yl)-1,3-benzothiazol-2-yl)-4-hydroxybutane nitrile dihydrochloride]	< 10 nM
COc1ccc(-c2n[nH]cc2-c2ccc3ncnc(-c4ccc(S(C)(=O)=O)s4)c3c2)cc1OC [Example 261, 6-[3-(3,4-Dimethoxyphenyl)-1H-4-pyrazolyl]-4-[5-(methylsulfonyl)-2-thienyl]quinazoline dihydrochloride]	100 to 1000 nM

same assay, conditions: HEK293; Table 2; 1 ng/ml human recombinant IL-4, 16 hours, 293 cells with STAT6 reporter; read-out: Inhibitory activity IC50 (concentration at which the alkali phosphatase activity induced by IL-4 was inhibited by 50%)

Compound	IC50
Cc1cnn(-c2ncnc3ccc(-c4c[nH]nc4-c4c(F)cccc4F)cc23)c1 [Example 913, 6-[3-(2,6-Difluorophenyl)-1H-pyrazol-4-yl]-4-(4-methylpyrazol-1-yl) quinazoline]	< 10 nM
CS(=O)(=O)c1cccc(N2CCCN(c3ncnc4ccc(-c5cn[nH]c5)cc34)CC2)c1 [Example 1002, 4-{4-(3-Methylsulfonyl)phenyl}-1,4-diazepan-1-yl}-6-(1H-4-pyrazolyl)quinazoline hydrochloride]	10 to 100 nM
O=C(Nc1ccc(-c2cnc3ccc(-c4cn[nH]c4)cn23)cc1F)c1ccc(F)cc1 [Example 705, N1-{2-Fluoro-4-[6-(1H-4-pyrazolyl)imidazo[1,2-a]pyridin-3-yl]phenyl}-4-fluorobenzamide hydrochloride]	10 to 100 nM
C[C@H](NC(=O)c1ccc(-n2cnc3ccc(-c4cn[nH]c4)cc32)cc1F)C(=O)c1ccc(F)cc1 [Example 729, N1-[(1S)-2-(4-Fluorophenyl-1-methyl-2-oxoethyl)-2-fluoro-4-[6-(1H-4-pyrazolyl)-1H-benzo[d]imidazol-1-yl]benzamide hydrochloride]	< 10 nM
COC1CCN(C(=O)c2ccc(-n3cnc4ccc(-c5c[nH]nc5-c5ccc(F)cc5)cc43)nc2)C1 (stereo not shown) [Example 725, 6-{6-[3-(4-Fluorophenyl)-1H-4-pyrazolyl]-1H-benzo[d]imidazol-1-yl}-pyridin-3-yl)-(3-methoxypyrrolidin-1-yl)methanone dihydrochloride]	< 10 nM
O=C(NC1=NCCS1)c1ccc(-c2cnc3ccc(-c4cn[nH]c4)cn23)cc1F [Example 712, N1-(4,5-Dihydro-1,3-thiazol-2-yl)-2-fluoro-4-[6-(1H-4-pyrazolyl)imidazo[1,2-a]pyridin-3-yl]benzamide dihydrochloride]	< 10 nM

Other lines, results leading:

IC50	Compound
< 10 nM	CS(=O)(=O)c1ccc(-c2ncnc3ccc(-c4c[nH]nc4-c4ccc(Cl)cc4F)cc23)s1 [Example 894, 6-[3-(4-Chloro-2-fluorophenyl)-1H-pyrazol-4-yl]-4-(5-methylsulfonylthiophen-2-yl) quinazoline]
10 to 100 nM	CN(CC(=O)c1ccc(F)cc1)S(=O)(=O)c1ccc(-c2ncnc3ccc(-c4c[nH]nc4-c4ccc(F)cc4)cc23)s1 [Example 866, 5-{6-[3-(4-Fluorophenyl)-1H-pyrazol-4-yl]quinazolin-4-yl}thiophen-2-sulfonic acid [2-(4-fluorophenyl) 2-oxoethyl]methylamide dihydrochloride]
< 10 nM	O=S(=O)(c1ccc(-c2ncnc3ccc(-c4c[nH]nc4-c4ccc(F)cc4)cc23)s1)C1CC1 [Example 902, 4-(5-Cyclopropanesulfonylthiophen-2-yl)-6-[3-(4-fluorophenyl)-1H-pyrazol-4-yl] quinazoline]
< 10 nM	CNc1ccc(-c2n[nH]cc2-c2ccc3ncnc(-c4ccc(S(C)(=O)=O)s4)c3c2)cc1 [Example 883, (4-{4-[4-(5-Methylsulfonylthiophen-2-yl)quinazolin-6-yl]-1H-pyrazol-3-yl}phenyl) methylamine]
10 to 100 nM	CS(=O)(=O)c1ccc(-c2ncnc3ccc(-c4c[nH]nc4-c4ccc(N5CCOCC5)cc4)cc23)s1 [Example 887, 4-(5-Methylsulfonylthiophen-2-yl)-6-[3-(4-morpholin-4-ylphenyl)-1H-pyrazol-4-yl] quinazoline]
< 10 nM	O=S(=O)(c1ccc(-c2ncnc3ccc(-c4c[nH]nc4-c4ccc(F)cc4F)cc23)s1)C1CC1 [Example 903, 4-(5-Cyclopropanesulfonylthiophen-2-yl)-6-[3-(2,4-difluorophenyl)-1H-pyrazol-4-yl] quinazoline]
< 10 nM	Fc1ccc(-c2n[nH]cc2-c2ccc3ncnc(-c4nnc(C5CC5)s4)c3c2)c(F)c1 [Example 908, 4-(5-Cyclopropyl[1,3,4]thiadiazol-2-yl)-6-[3-(2,4-difluorophenyl)-1H-pyrazol-4-yl] quinazoline]
